Reference: PMC6747129 (International Journal of Molecular Sciences, 2019)

Tests used:
CYP3A4 [1] = biological target: T1, CYP3A4 (Homo sapiens, UniProt P08684); assay: in vitro; details: pH 7.4
CYP3A4 [2] = biological target: T1, CYP3A4
[3] = system: microsomal and recombinant CYP3A4; details: reversible and mechanism-based inhibition of CYP3A4; cited from earlier work
CYP3A4 [4] = biological target: T1, CYP3A4; assay: biochemical

T1 sequence (P08684 whole entry): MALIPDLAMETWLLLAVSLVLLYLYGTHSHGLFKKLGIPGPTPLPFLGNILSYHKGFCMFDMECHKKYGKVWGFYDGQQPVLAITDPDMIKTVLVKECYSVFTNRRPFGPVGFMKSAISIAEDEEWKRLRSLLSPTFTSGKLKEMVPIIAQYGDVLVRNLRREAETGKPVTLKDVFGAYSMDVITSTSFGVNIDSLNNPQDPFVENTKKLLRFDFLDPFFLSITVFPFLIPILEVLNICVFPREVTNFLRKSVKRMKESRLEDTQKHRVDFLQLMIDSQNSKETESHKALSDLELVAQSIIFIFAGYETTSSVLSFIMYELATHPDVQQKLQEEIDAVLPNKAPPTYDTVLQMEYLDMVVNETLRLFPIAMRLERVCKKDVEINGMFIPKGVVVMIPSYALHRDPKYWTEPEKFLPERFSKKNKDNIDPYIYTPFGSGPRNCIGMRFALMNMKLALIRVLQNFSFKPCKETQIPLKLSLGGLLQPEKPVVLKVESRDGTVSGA

SMILES | Kd (CYP3A4 [1]) [µM] | share of the total absorbance decrease (Soret band) due to occupation of the high affinity site (CYP3A4 [2]; DHB titration, two-site fit) | IC50 [3] [µM] | Kd (CYP3A4 [4]) [µM] | n, Hill coefficient (CYP3A4 [2]; sigmoidal fit of titration curve, ligand-free CYP3A4)
C/C(=C\COc1c2ccoc2cc2oc(=O)ccc12)CCC(O)C(C)(C)O (stereo not shown) [DHB, 6′,7′-dihydroxybergamottin] | 10.3 ± 1.4 | ~ 17% | 2 to 23 | 0.22 ± 0.03 | –
CC(C)=CCC/C(C)=C/COc1c2ccoc2cc2oc(=O)ccc12 [bergamottin] | – | – | 2 to 23 | 3 ± 0.3 | 1.8
